In one experiment the test system is VCaP cells. In words: Cellular growth inhibition assay for VCaP cells, CellTiter-Glo. It is filed as cell-based, human. The conditions noted are these: VCaP cells, 72 hours, CellTiter-Glo, read-out: GI50. The essentials:
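GI50 values come from four-parameter curve fits of luminescence data normalized to a zero baseline. Compound, in medium with 0.5% DMSO, was added one day after plating and left for 72 h before CellTiter-Glo 2.0 addition.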
For orientation: In ATP-based viability assays light output follows the ATP content of the culture.

Experiment [1] has as its system T-Rex 293 cell line SC3 cells lacking increased expression of androgen receptor protein. In words: Cellular growth inhibition, T-Rex 293 SC3 cells lacking increased androgen receptor expression (no doxycycline), CellTiter-Glo. It is filed as cell-based. The settings on record: T-Rex 293 SC3 cells lacking increased androgen receptor expression (not exposed to doxycycline), 72 hours, CellTiter-Glo; read-out: GI50. In short, it runs like this: (§1)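 SC3, a T-Rex 293 clone with doxycycline-inducible wild-type androgen receptor, was seeded in phenol red-free DMEM with 10% charcoal-dextran FBS, with or without 10 ng/mL doxycycline. Compound added at 24 h (0.5% DMSO) for 72 h at 37° C. CellTiter-Glo 2.0 luminescence; GI50 from four-parameter fit.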

For a further experiment, the system named is T47D cells. In words: Cellular growth inhibition assay for T47D cells, CellTiter-Glo. It is filed as cell-based, human. The settings on record: 72 hours treatment, CellTiter-Glo 2.0. In short, it runs like this:
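Luminescence from CellTiter-Glo 2.0 after 72 h of compound exposure gives the viability signal. Cells grew in insulin-supplemented (0.2 units/mL) DMEM with 10% FBS and were treated one day after seeding at 0.5% DMSO. GI50 values come from four-parameter nonlinear regression.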

For experiment [2], the system named is T-Rex 293 cell line SC3 cells having increased expression of androgen receptor protein. In words: Cellular growth inhibition, T-Rex 293 SC3 cells with increased androgen receptor expression (doxycycline), CellTiter-Glo. The settings on record: T-Rex 293 SC3 cells with increased androgen receptor expression (exposed to 10 ng/mL doxycycline), 72 hours, CellTiter-Glo; read-out: GI50. It is filed as cell-based. The essentials: as §1

The structures appear in SMILES notation. Where two headings read alike, the source gives them in different places.

The text below walks through data of US20250388575A1, “HETEROBIFUNCTIONAL COMPOUNDS AND METHODS OF TREATING DISEASE” (Halda Therapeutics OpCo, Inc., priority 2022, published 2025).

One may read the GI50 as the concentration that inhibits growth by half. With `CCS(=O)(=O)c1ccc(Oc2ccc(OCC3CCN(c4ccc(C(=O)N[C@H]5CC[C@H](Oc6ccc(C#N)c(Cl)c6)CC5)nn4)CC3)cc2)c(-c2cn(C)c(=O)c3[nH]ccc23)c1` [I-41], the GI50 (in the experiment on VCaP cells; in experiment [1]; with T47D cells; in experiment [2]) was less than 500 nM each time.
Take `Cn1cc(-c2cc(S(C)(=O)=O)ccc2OC(CCCCN2CCN(c3ccc(C(=O)NC4CCC(Oc5ccc(C#N)c(Cl)c5)CC4)nn3)CC2)C2CC2)c2cc[nH]c2c1=O` (centres unmarked) [I-244, N-[4-(3-chloro-4-cyano-phenoxy)cyclohexyl]-6-[4-[5-cyclopropyl-5-[2-(6-methyl-7-oxo-1H-pyrrolo[2,3-c]pyridin-4-yl)-4-methylsulfonyl-phenoxy]pentyl]piperazin-1-yl]pyridazine-3-carboxamide]: the GI50 (in the experiment on VCaP cells (Homo sapiens); in experiment [1]; with T47D cells (Homo sapiens); in experiment [2]) was less than 500 nM throughout.
In the case of `Cn1cc(-c2cc(C(C)(C)O)ccc2Oc2ccc(CCC3CCN(c4ccc(C(=O)N[C@H]5CC[C@H](Oc6ccc(C#N)c(Cl)c6)CC5)nn4)CC3)c(F)c2F)c2cc[nH]c2c1=O` [I-112], the GI50 with VCaP cells is 500 to 1500 nM; in experiment [1] it was more than 3000 nM; in the experiment on T47D cells it was 500 to 1500 nM; in experiment [2], less than 500 nM.
`CCS(=O)(=O)c1ccc(Oc2ccc(CCC3CCN(c4ccc(C(=O)N[C@H]5CC[C@H](Oc6ccc(C#N)c(Cl)c6)CC5)nn4)CC3)nn2)c(-c2cn(C)c(=O)c3[nH]ccc23)c1` [I-221]: the GI50 (in the experiment on VCaP cells; in experiment [1]; with T47D cells; in experiment [2]) was less than 500 nM throughout.
In the case of `Cn1cc(-c2cc(C(C)(C)O)ccc2Oc2ccc(N3CC(CC4CN(c5ccc(C(=O)N[C@H]6CC[C@H](Oc7ccc(C#N)c(Cl)c7)CC6)nn5)C4)C3)cc2)c2cc[nH]c2c1=O` [I-149], the GI50 (in the experiment with VCaP cells (Homo sapiens); in experiment [1]; with T47D cells (Homo sapiens); in experiment [2]) was less than 500 nM in each case.
Consider `CCS(=O)(=O)c1ccc(Oc2cc(F)c(CCC3CCN(c4ccc(C(=O)N[C@H]5CC[C@H](Oc6ccc(C#N)c(Cl)c6)CC5)nn4)CC3)c(F)c2)c(-c2cn(C)c(=O)c3[nH]ccc23)c1` [I-49], for which the GI50 was less than 500 nM in the experiment on VCaP cells, less than 500 nM in experiment [1], 1500 to 3000 nM in the experiment on T47D cells and less than 500 nM in experiment [2].
For `CCS(=O)(=O)c1ccc(Oc2c(F)cc(CCC3CCN(c4ccc(C(=O)N[C@H]5CC[C@H](Oc6ccc(C#N)c(Cl)c6)CC5)nn4)CC3)cc2F)c(-c2cn(C)c(=O)c3[nH]ccc23)c1` [I-58], the GI50 in the experiment on VCaP cells is less than 500 nM; in experiment [1] it was more than 3000 nM; in the experiment with T47D cells, less than 500 nM; in experiment [2] it was less than 500 nM.
On to `CCS(=O)(=O)c1ccc(Oc2cccc(CCCC3CCN(c4ncc(C(=O)N[C@H]5CC[C@H](Oc6ccc(C#N)c(Cl)c6)CC5)cn4)CC3)c2)c(-c2cn(C)c(=O)c3[nH]ccc23)c1` [I-66], for which the GI50 (with VCaP cells; in experiment [1]; in the experiment with T47D cells; in experiment [2]) was less than 500 nM in each case.
For `CCS(=O)(=O)Cc1ccc(Oc2cccc(OCCOC3CCN(c4ncc(C(=O)N[C@H]5CC[C@H](Oc6ccc(C#N)c(Cl)c6)CC5)cn4)CC3)c2)c(-c2cn(C)c(=O)c3[nH]ccc23)c1` [I-152], the GI50 (with VCaP cells (Homo sapiens); in experiment [1]; in the experiment on T47D cells (Homo sapiens); in experiment [2]) was less than 500 nM throughout.
Take `CCS(=O)(=O)c1ccc(Oc2ccc(CCCC3CCN(c4ccc(C(=O)N[C@H]5CC[C@H](Oc6ccc(C#N)c(Cl)c6)CC5)nn4)CC3)cc2)c(-c2cn(C)c(=O)c3[nH]ccc23)c1` [I-61]: the GI50 (in the experiment on VCaP cells (Homo sapiens); in experiment [1]; in the experiment with T47D cells (Homo sapiens); in experiment [2]) was less than 500 nM in each case.
Turning to `Cn1cc(-c2cc(C(C)(C)O)ccc2Oc2ccc(C3CC(N4CCN(c5ccc(C(=O)N[C@H]6CC[C@H](Oc7ccc(C#N)c(Cl)c7)CC6)nn5)CC4)C3)cc2)c2cc[nH]c2c1=O` (some centres unmarked) [I-136], the GI50 (in the experiment with VCaP cells; in experiment [1]; with T47D cells; in experiment [2]) was less than 500 nM throughout.
`Cn1cc(-c2cc(C(C)(C)O)ccc2Oc2ccc(N3CC4(CCN(c5ccc(C(=O)N[C@H]6CC[C@H](Oc7ccc(C#N)c(Cl)c7)CC6)nn5)CC4)C3)cc2)c2cc[nH]c2c1=O` [I-144]: the GI50 with VCaP cells is less than 500 nM; in experiment [1], 500 to 1500 nM; in the experiment on T47D cells, less than 500 nM; in experiment [2], less than 500 nM.
On to `Cn1cc(-c2cc(C(C)(C)O)ccc2CN2CC(CC3CCN(c4ccc(C(=O)NC5CCC(Oc6ccc(C#N)c(Cl)c6)CC5)nn4)CC3)C2)c2cc[nH]c2c1=O` (centres unmarked) [I-248, N-[4-(3-chloro-4-cyano-phenoxy)cyclohexyl]-6-[4-[[1-[[4-(1-hydroxy-1-methyl-ethyl)-2-(6-methyl-7-oxo-1H-pyrrolo[2,3-c]pyridin-4-yl)phenyl]methyl]azetidin-3-yl]methyl]-1-piperidyl]pyridazine-3-carboxamide], for which the GI50 in the experiment on VCaP cells (Homo sapiens) was more than 3000 nM; in experiment [1], 1500 to 3000 nM; in the experiment with T47D cells (Homo sapiens) it was 500 to 1500 nM; in experiment [2] it was 500 to 1500 nM.
As for `CCS(=O)(=O)c1ccc(Oc2ccc(CN3CC4(CCN(c5ccc(C(=O)N[C@H]6CC[C@H](Oc7ccc(C#N)c(Cl)c7)CC6)nn5)CC4)C3)c(F)c2)c(-c2cn(C)c(=O)c3[nH]ccc23)c1` [I-78], the GI50 (in the experiment on VCaP cells (Homo sapiens); in experiment [1]; in the experiment with T47D cells (Homo sapiens); in experiment [2]) was less than 500 nM throughout.
Regarding `CCS(=O)(=O)c1ccc(OC2CC(OC3CC4(CCN(c5ccc(C(=O)N[C@H]6CC[C@H](Oc7ccc(C#N)c(Cl)c7)CC6)nn5)CC4)C3)C2)c(-c2cn(C)c(=O)c3[nH]ccc23)c1` (some centres unmarked) [I-229], the GI50 (with VCaP cells; in experiment [1]; in the experiment with T47D cells; in experiment [2]) was less than 500 nM each time.
For `Cn1cc(-c2cc(C(C)(C)O)ccc2Oc2ccc(CCC3C4CN(c5ccc(C(=O)N[C@H]6CC[C@H](Oc7ccc(C#N)c(Cl)c7)CC6)nn5)CC34)cc2)c2cc[nH]c2c1=O` (some centres unmarked) [I-134], the GI50 with VCaP cells was less than 500 nM; in experiment [1], more than 3000 nM; with T47D cells it was less than 500 nM; in experiment [2] it was less than 500 nM.
Take `CCS(=O)(=O)c1ccc(Oc2ccc(CC3CCN(c4ccc(C(=O)N[C@H]5CC[C@H](Oc6ccc(C#N)c(Cl)c6)CC5)nn4)CC3)c(F)c2)c(-c2cn(C)c(=O)c3[nH]ccc23)c1` [I-80]: the GI50 (in the experiment on VCaP cells (Homo sapiens); in experiment [1]; with T47D cells (Homo sapiens); in experiment [2]) was less than 500 nM each time.
As for `CCS(=O)(=O)Nc1ccc(Oc2cccc(N3CC(N4CCN(c5ccc(C(=O)N[C@H]6CC[C@H](Oc7ccc(C#N)c(Cl)c7)CC6)nn5)CC4)C3)c2F)c(-c2cn(C)c(=O)c3[nH]ccc23)c1` [I-12], the GI50 in the experiment with VCaP cells (Homo sapiens) was less than 500 nM; in experiment [1] it was more than 3000 nM; in the experiment with T47D cells (Homo sapiens), less than 500 nM; in experiment [2], less than 500 nM.
For the compound `CCS(=O)(=O)c1ccc(Oc2ccc(CC3CN(c4ccc(C(=O)N[C@H]5CC[C@H](Oc6ccc(C#N)c(Cl)c6)CC5)nn4)C3)cc2)c(-c2cn(C)c(=O)c3[nH]ccc23)c1` [I-77], the GI50 (in the experiment with VCaP cells (Homo sapiens); in experiment [1]; with T47D cells (Homo sapiens); in experiment [2]) was less than 500 nM in each case.
Take `CCS(=O)(=O)c1ccc(Oc2ccc(CCCC3CN(c4ccc(C(=O)N[C@H]5CC[C@H](Oc6ccc(C#N)c(Cl)c6)CC5)nn4)C3)cc2)c(-c2cn(C)c(=O)c3[nH]ccc23)c1` [I-68]: the GI50 (in the experiment with VCaP cells; in experiment [1]; in the experiment on T47D cells; in experiment [2]) was less than 500 nM in each case.
In the case of `Cn1cc(-c2cc(C3CCCS3(=O)=O)ccc2OC2CC(OCC3CCN(c4ccc(C(=O)NC5CCC(Oc6ccc(C#N)c(Cl)c6)CC5)nn4)CC3)C2)c2cc[nH]c2c1=O` (centres unmarked) [I-245, N-[4-(3-chloro-4-cyano-phenoxy)cyclohexyl]-6-[4-[[3-[4-(1,1-dioxothiolan-2-yl)-2-(6-methyl-7-oxo-1H-pyrrolo[2,3-c]pyridin-4-yl)phenoxy]cyclobutoxy]methyl]-1-piperidyl]pyridazine-3-carboxamide], the GI50 (in the experiment on VCaP cells (Homo sapiens); in experiment [1]; with T47D cells (Homo sapiens); in experiment [2]) was less than 500 nM each time.
For `CCS(=O)(=O)c1ccc(Oc2ccc(CCC3C4CN(c5ccc(C(=O)N[C@H]6CC[C@H](Oc7ccc(C#N)c(Cl)c7)CC6)nn5)CC34)cc2)c(-c2cn(C)c(=O)c3[nH]ccc23)c1` (some centres unmarked) [I-70], the GI50 (in the experiment on VCaP cells; in experiment [1]; in the experiment with T47D cells; in experiment [2]) was less than 500 nM throughout.
For the compound `CCS(=O)(=O)c1ccc(Oc2ccc(C(C)(C)N3CC4(CN(c5ccc(C(=O)N[C@H]6CC[C@H](Oc7ccc(C#N)c(Cl)c7)CC6)nn5)C4)C3)cc2)c(-c2cn(C)c(=O)c3[nH]ccc23)c1` [I-88], the GI50 (with VCaP cells (Homo sapiens); in experiment [1]; in the experiment with T47D cells (Homo sapiens); in experiment [2]) was less than 500 nM each time.
